Patent publication US20260207605A1, “KRAS G12D INHIBITORS AND USES THEREOF” (Abbisko Therapeutics Co., Ltd., priority 2022, published 2026)
Read-outs that look alike come from different tables or passages of the source.

How the values were obtained:
[1] = target: KRAS^G12D/cRAF (Homo sapiens, UniProt P01116, G12D); experiment: KRAS G12D/cRAF binding test (Alphalisa); settings: His-tagged KRAS G12D with GMPPNP, GST-tagged cRAF
Description: The compound was dissolved in 100% DMSO at a starting concentration of 5 mM and diluted in DMSO with a 3-fold serial dilution method for a total of 8 concentration points. 1 μL of the compound or DMSO at each concentration point was added into 99 μL of the experimental buffer to obtain 10× stock solution.
(§1) The ratio for each compound concentration was calculated from the signal of the DMSO control group contained in each assay plate and the Alphalisa signal in each compound well. The compound concentration required for inhibitory concentration at 50% (IC50) was determined using a four-parameter logarithmic dose-response equation by testing the concentration of the compound and the value of the ratio. The endpoint value (IC50) of the reference compound was assessed in each experiment as a quality control measure. If the endpoint value is within three times the expected value, the experiment may be considered acceptable.

[2] = system: HPAC; experiment: Anti-proliferative 2D CTG assay, HPAC; type: cell-based; settings: Homo sapiens, 96 h, HPAC cells, 4 days incubation, read-out: HPAC cell IC50
Description: (§2) 1.1 Day 0 Cell Culture and Plating
(§3) Cells in a logarithmic growth phase were harvested and the cells were counted by using a […]. Cell viability was tested by using a trypan blue exclusion method to ensure that cell viability was above 90%. The cell concentration was adjusted to the desired final density, and 90 μL of cell suspension was added to a 96-well plate, then the cells were incubated overnight at 37° C., 5% CO2 and 95% humidity.
(§4) 10 μL PBS was added to each well of the TO plate containing cells. The CTG reagent was thawed and the plate was equilibrated to room temperature for 30 minutes. The CTG solution of 50 µL/well was added to each well. The cells were lysed by shaking on an orbital shaker for 5 minutes. The plate was left at room temperature for 20 minutes to stabilize the luminescence signal. The TO fluorescence signal value was read.
(§5) From the 10 mM stock solution, with a ratio of 1:5, 9-point serial dilutions were performed. The 10× medium containing the compound was transferred into corresponding wells of the 96 wells. The final maximum compound concentration was […] and the final DMSO concentration was 0.1%. The 96-well plate was placed in a 37° C. incubator and incubated for 4 days.
(§6) 50 μL/well of detection reagent (CTG) was added to the cells, and the signal was read in an Envision machine.
as §1, with “The percent inhibition (%) at” for “The ratio for”, “signal in” for “signal of”, “the HPE and ZPE” for “the DMSO”, “control wells and the fluorescence signal in the individual compound wells included” for “control group contained”, “assay plate. […]” for “assay plate and the Alphalisa signal in each compound well.”, “the inhibition percentage value.” for “the value of the ratio.”

[3] = system: LS513; experiment: Anti-proliferative 2D CTG assay, LS513; type: cell-based; settings: Homo sapiens, LS-513, 96 h, LS513 cells, 4 days incubation, read-out: LS513 cell IC50
Description: as §2, §3, §4, §5, §6
as §1, with “The percent inhibition (%) at” for “The ratio for”, “signal in” for “signal of”, “the HPE and ZPE” for “the DMSO”, “control wells and the fluorescence signal in the individual compound wells included” for “control group contained”, “assay plate. […]” for “assay plate and the Alphalisa signal in each compound well.”, “the inhibition percentage value.” for “the value of the ratio.”

[4] = Pharmacokinetic experiment in mice (single PO or IV administration); settings: male, ICR, mouse, plasma
Description: The purpose of this trial is to study the pharmacokinetic behavior of some compounds of the present invention, and the administration method is: single oral administration (PO) or intravenous administration (IV) to ICR mice.
ICR mice male N=9 original source: Shanghai Sippr-Bk Lab Animal Co., Ltd.
The compounds were weighed and dissolved in the corresponding solution (0.5% CMC+1% tween water solution or 10% PG+10% Solutol®+80% pH3 citrate buffer). The mixture was then shaken well and sonicated to prepare a 1 mg/mL stock solution. Nine mice were orally administered at a dose of 10 mg/kg or intravenously administered at a dose of 2 mg/kg after an overnight fast.
About 90 μL of blood was collected via the submandibular vein per time point, heparin sodium anticoagulant was added, the sample was placed on ice after collection, and plasma was centrifuged within 1 hour (centrifugation conditions: 8,000 rpm, 6 minutes, 2-8° C.). The blood collection timepoints were 0, 0.25, 0.5, 1, 2, 4, 6, 8 and 24 h. The samples were stored in a −20° C. refrigerator.
The plasma sample was 40 μL, 160 μL of ice-cold acetonitrile containing internal standard was added, vortexed for 3 minutes, and centrifuged at 11,000 rpm for 5 minutes. 100 μL of the supernatant was taken and added to 100 μL of water, 5 μL of the sample was taken and injected into LC/MS/MS for analysis.

[5] = system: AsPC-1; experiment: Anti-proliferative 2D CTG assay, AsPC-1; type: cell-based; settings: AsPC-1 cells, 4 days incubation, read-out: AsPC-1 cell IC50
Description: as §2, §3, §4, §5, §6
as §1, with “The percent inhibition (%) at” for “The ratio for”, “signal in” for “signal of”, “the HPE and ZPE” for “the DMSO”, “control wells and the fluorescence signal in the individual compound wells included” for “control group contained”, “assay plate. […]” for “assay plate and the Alphalisa signal in each compound well.”, “the inhibition percentage value.” for “the value of the ratio.”

[6] = system: AGS; experiment: Anti-proliferative 2D CTG assay, AGS; type: cell-based; settings: AGS cells, 4 days incubation, read-out: AGS cell IC50
Description: as §2, §3, §4, §5, §6
as §1, with “The percent inhibition (%) at” for “The ratio for”, “signal in” for “signal of”, “the HPE and ZPE” for “the DMSO”, “control wells and the fluorescence signal in the individual compound wells included” for “control group contained”, “assay plate. […]” for “assay plate and the Alphalisa signal in each compound well.”, “the inhibition percentage value.” for “the value of the ratio.”

Sequence of KRAS^G12D/cRAF (P01116 1-188 isoform P01116-2 G12D): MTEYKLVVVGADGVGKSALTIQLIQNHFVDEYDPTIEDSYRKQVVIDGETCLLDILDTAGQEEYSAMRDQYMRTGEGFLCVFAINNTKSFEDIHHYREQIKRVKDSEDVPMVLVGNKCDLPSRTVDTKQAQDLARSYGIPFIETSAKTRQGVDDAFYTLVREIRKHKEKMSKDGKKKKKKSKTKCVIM

Row | Structure (SMILES) | IC50 [1] [nM] | IC50 [2] [nM] | IC50 [3] [nM] | IC50 ([6]; Homo sapiens, AGS, 96 h) [nM] | IC50 ([5]; Homo sapiens, ASPC1, 96 h) [nM] | other results
1 | [2H]C([2H])([2H])C([2H])([2H])[C@@]12CC[C@@H](CN(c3nc(OC[C@@]45CCCN4C/C(=C\F)C5)nc4c(F)c(-c5ccc(F)c6sc(N)c(C#N)c56)c(Cl)cc34)C1)N2 (single isomer, unassigned) [Example 361] | 7.1 | 38 | 40 | – | – | AUC ([4]; iv, 2 mg/kg): 221 ng·h/mL; Cmax ([4]; iv, 2 mg/kg): 179 ng/mL; half-life ([4]; iv, 2 mg/kg): 13.7 h; AUC ([4]; po, 10 mg/kg): 370 ng·h/mL; Cmax ([4]; po, 10 mg/kg): 164 ng/mL; bioavailability ([4]; po, 10 mg/kg): 33.5%; half-life ([4]; po, 10 mg/kg): 9.6 h
2 | C#Cc1c(F)ccc2cc(O)cc(-c3ncc4c(N5C[C@@H]6CC[C@](C7CC7)(C5)N6)nc(OC[C@@]56CCCN5CC(=C(F)F)C6)nc4c3F)c12 [Example 45, 4-(4-((1S,5S)-1-cyclopropyl-3,8-diazabicyclo[3.2.1]octan-3-yl)-2-(((S)-2-(difluoromethylene)tetrahydro-1H-pyrrolizin-7a (5H)-yl)methoxy)-8-fluoropyrido [4,3-d]pyrimidin-7-yl)-5-ethynyl-6-fluoronaphthalen-2-ol] | 52.5 | 133 | 163 | – | – | –
3 | C#Cc1c(F)ccc2cc(O)cc(-c3ncc4c(N5C[C@@H]6CC[C@](CC)(C5)N6)nc(OC[C@@]56CCCN5C/C(=C\F)C6)nc4c3F)c12 [Example 56, 4-(4-((1R,5S)-1-ethyl-3,8-diazabicyclo[3.2.1]octan-3-yl)-8-fluoro-2-(((S,Z)-2-(fluoromethylene)tetrahydro-1H-pyrrolizin-7a (5H)-yl)methoxy)pyrido[4,3-d]pyrimidin-7-yl)-5-ethynyl-6-fluoronaphthalen-2-ol] | – | 2.5 | 2.6 | – | – | IC50 [5]: 9.1 nM; IC50 [6]: 0.6 nM
4 | C#Cc1c(F)ccc2cc(O)cc(-c3ncc4c(N5C[C@@H]6CC[C@](C7CCCC7)(C5)N6)nc(OC[C@@]56CCCN5C/C(=C\F)C6)nc4c3F)c12 [Example 75, 4-(4-((1S,5S)-1-cyclopentyl-3,8-diazabicyclo[3.2.1]octan-3-yl)-8-fluoro-2-(((S,Z)-2-(fluoromethylene)tetrahydro-1H-pyrrolizin-7a (5H)-yl)methoxy)pyrido[4,3-d]pyrimidin-7-yl)-5-ethynyl-6-fluoronaphthalen-2-ol] | 34.5 | 93.6 | 56.1 | 14.2 | – | –
5 | [2H]C([2H])([2H])OC[C@@]12CC[C@@H](CN(c3nc(OC[C@@]45CCCN4C/C(=C/F)C5)nc4c(F)c(-c5cc(O)cc6ccc(F)c(C#C)c56)ncc34)C1)N2 [Example 84, 5-ethynyl-6-fluoro-4-(8-fluoro-2-(((S,E)-2-(fluoromethylene)tetrahydro-1H-pyrrolizin-7a (5H)-yl)methoxy)-4-((1R,5S)-1-((methoxy-d3)methyl)-3,8-diazabicyclo[3.2.1]octan-3-yl)pyrido[4,3-d]pyrimidin-7-yl) naphthalen-2-ol] | 3.9 | – | – | 11.4 | 59.3 | –
6 | C#Cc1c(F)ccc2cc(O)cc(-c3ncc4c(N5C[C@@H]6CC[C@](C7CC7)(C5)N6)nc(OC[C@@]56CCCN5C/C(=C/F)C6)nc4c3F)c12 [Example 90, 4-(4-((1S,5S)-1-cyclopropyl-3,8-diazabicyclo[3.2.1]octan-3-yl)-8-fluoro-2-(((S,E)-2-(fluoromethylene)tetrahydro-1H-pyrrolizin-7a(5H)-yl)methoxy)pyrido[4,3-d]pyrimidin-7-yl)-5-ethynyl-6-fluoronaphthalen-2-ol] | 40.7 | – | – | 28.1 | 103 | –
7 | [2H]C([2H])([2H])[C@@]12CC[C@@H](CN(c3nc(OC[C@@]45CCCN4C/C(=C\F)C5)nc4c(F)c(-c5cc(O)cc6ccc(F)c(C#C)c56)c(F)cc34)C1)N2 [Example 229, 4-(6,8-difluoro-2-(((S,Z)-2-(fluoro-methylene)tetrahydro-1H-pyrrolizin-7a(5H)-yl)methoxy)-4-((1R,5S)-1-(methyl-d3)-3,8-diazabicyclo[3.2.1]octan-3-yl)quinazolin-7-yl)-5-ethynyl-6-fluoro-naphthalen-2-ol] | 20.6 | 87.5 | 33.3 | – | – | –
8 | [2H]C([2H])([2H])[C@@]12CC[C@@H](CN(c3nc(OC[C@@]45CCCN4C/C(=C\F)C5)nc4c(F)c(-c5cc(N)cc6ccc(F)c(C#C)c56)ncc34)C1)N2 [Example 355, 5-ethynyl-6-fluoro-4-(8-fluoro-2-(((S,Z)-2-(fluoromethylene)tetrahydro-1H-pyrrolizin-7a(5H)-yl)methoxy)-4-((1R,5S)-1-(methyl-d3)-3,8-diazabicyclo[3.2.1]octan-3-yl)pyrido[4,3-d]pyrimidin-7-yl)naphthalen-2-amine] | 11 | – | – | 17.7 | 66.1 | AUC ([4]; iv, 2 mg/kg): 223 ng·h/mL; Cmax ([4]; iv, 2 mg/kg): 68.9 ng/mL; half-life ([4]; iv, 2 mg/kg): 7.2 h; AUC ([4]; po, 10 mg/kg): 466 ng·h/mL; Cmax ([4]; po, 10 mg/kg): 120 ng/mL; bioavailability ([4]; po, 10 mg/kg): 41.7%; half-life ([4]; po, 10 mg/kg): 9.1 h
9 | [2H]C([2H])([2H])C([2H])([2H])[C@@]12CC[C@@H](CN(c3nc(OC[C@@]45CCCN4CC(=C)C5)nc4c(F)c(-c5cc(N)cc6ccc(F)c(C#C)c56)ncc34)C1)N2 [Example 357, 4-(4-((1R,5S)-1-(ethyl-d5)-3,8-diazabicyclo[3.2.1]octan-3-yl)-8-fluoro-2-(((S)-2-methylenetetrahydro-1H-pyrrolizin-7a(5H)-yl)methoxy)pyrido[4,3-d]pyrimidin-7-yl)-5-ethynyl-6-fluoronaphthalen-2-amine] | – | 46.9 | 57.4 | 23 | – | –
10 | [2H]C([2H])([2H])C([2H])([2H])[C@@]12CC[C@@H](CN(c3nc(OC[C@@]45CCCN4C/C(=C\F)C5)nc4c(F)c(-c5cccc6sc(N)c(C#N)c56)c(Cl)cc34)C1)N2 [Example 362, 2-amino-4-(6-chloro-4-((1R,5S)-1-(ethyl-d5)-3,8-diazabicyclo [3.2.1]octan-3-yl)-8-fluoro-2-(((S,Z)-2-(fluoromethylene)tetra-hydro-1H-pyrrolizin-7a(5H)-yl)methoxy)quinazolin-7-yl)benzo [b]thiophene-3-carbonitrile] | 27.7 | 61.8 | 65.7 | – | – | –
11 | [2H]C([2H])([2H])OC[C@@]12CC[C@@H](CN(c3nc(OC[C@@]45CCCN4C/C(=C\F)C5)nc4c(F)c(-c5cccc6sc(N)c(C#N)c56)c(Cl)cc34)C1)N2 [Example 363, 2-amino-4-(6-chloro-8-fluoro-2-(((S,Z)-2-(fluoromethylene)tetra-hydro-1H-pyrrolizin-7a(5H)-yl)methoxy)-4-((1R,5S)-1-((methoxy-d3)methyl)-3,8-diaza-bicyclo[3.2.1]octan-3-yl)quina-zolin-7-yl)benzo[b]thiophene-3-carbonitrile] | 18.6 | 66.3 | 82.3 | – | – | –
12 | C#Cc1c(F)ccc2cc(O)cc(-c3ncc4c(N5CC6CCC(C5)N6)nc(OC[C@@]56CCCN5C[C@H](F)C6)nc4c3F)c12 [Positive Compound 1, reference compound] | – | 10.3 | 18.1 | 4.2 | 34.9 | AUC ([4]; iv, 2 mg/kg): 367 ng·h/mL; Cmax ([4]; iv, 2 mg/kg): 1130 ng/mL; AUC ([4]; po, 10 mg/kg): 40.2 ng·h/mL; Cmax ([4]; po, 10 mg/kg): 20.6 ng/mL; bioavailability ([4]; po, 10 mg/kg): 2.2%
13 | C#Cc1c(F)ccc2cc(O)cc(-c3ncc4c(N5C[C@@H]6CC[C@](CC)(C5)N6)nc(OC[C@@]56CCCN5C[C@H](F)C6)nc4c3F)c12 [Positive Compound 2, reference compound] | – | 33 | 59.4 | 9.2 | 83.3 | –
